Measured values as given in PubChem BioAssay (NCI).
Values joined by “and” are separate entries in the source; they are usually repeats but may differ in a detail not shown here. Equal entries are not always repeated.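 Method: 48-hour compound exposure of cells in 96-well plates, five concentrations, linear interpolation of endpoints. At the TGI there is no net growth.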

Key:
Test in all cases: NCI tumour cell line growth inhibition, 48 h
786-0 renal = system: 786-0 renal
A498 renal = system: A498 renal
A549 NSCLC = system: A549 NSCLC
ACHN renal = system: ACHN renal
CAKI-1 renal = system: CAKI-1 renal
CCRF-CEM leukemia = system: CCRF-CEM leukemia
COLO 205 colon = system: COLO 205 colon
DLD-1 colon = system: DLD-1 colon
DMS 114 small cell lung = system: DMS 114 small cell lung
DMS 273 small cell lung = system: DMS 273 small cell lung
EKVX NSCLC = system: EKVX NSCLC
HCC-2998 colon = system: HCC-2998 colon
HCT-116 colon = system: HCT-116 colon
HCT-15 colon = system: HCT-15 colon
HL-60(TB) leukemia = system: HL-60(TB) leukemia
HOP-18 NSCLC = system: HOP-18 NSCLC
HOP-62 NSCLC = system: HOP-62 NSCLC
HOP-92 NSCLC = system: HOP-92 NSCLC
HT29 colon = system: HT29 colon
IGROV1 ovarian = system: IGROV1 ovarian
K-562 leukemia = system: K-562 leukemia
KM12 colon = system: KM12 colon
KM20L2 colon = system: KM20L2 colon
LOX IMVI melanoma = system: LOX IMVI melanoma
LXFL 529 NSCLC = system: LXFL 529 NSCLC
M14 melanoma = system: M14 melanoma
M19-MEL melanoma = system: M19-MEL melanoma
MALME-3M melanoma = system: MALME-3M melanoma
MCF7 breast = system: MCF7 breast
MOLT-4 leukemia = system: MOLT-4 leukemia
NCI-H226 lung = system: NCI-H226 lung
NCI-H23 lung = system: NCI-H23 lung
NCI-H460 lung = system: NCI-H460 lung
NCI-H522 lung = system: NCI-H522 lung
NCI/ADR-RES ovarian = system: NCI/ADR-RES ovarian
OVCAR-3 ovarian = system: OVCAR-3 ovarian
OVCAR-4 ovarian = system: OVCAR-4 ovarian
OVCAR-5 ovarian = system: OVCAR-5 ovarian
OVCAR-8 ovarian = system: OVCAR-8 ovarian
P388 leukemia = system: P388 leukemia
P388/ADR leukemia = system: P388/ADR leukemia
RPMI-8226 leukemia = system: RPMI-8226 leukemia
RXF 393 renal = system: RXF 393 renal
RXF-631 renal = system: RXF-631 renal
SF-268 CNS = system: SF-268 CNS
SF-295 CNS = system: SF-295 CNS
SF-539 CNS = system: SF-539 CNS
SK-MEL-2 melanoma = system: SK-MEL-2 melanoma
SK-MEL-28 melanoma = system: SK-MEL-28 melanoma
SK-MEL-5 melanoma = system: SK-MEL-5 melanoma
SK-OV-3 ovarian = system: SK-OV-3 ovarian
SN12C renal = system: SN12C renal
SN12K1 renal = system: SN12K1 renal
SNB-19 CNS = system: SNB-19 CNS
SNB-75 CNS = system: SNB-75 CNS
SNB-78 CNS = system: SNB-78 CNS
SR leukemia = system: SR leukemia
SW-620 colon = system: SW-620 colon
TK-10 renal = system: TK-10 renal
U251 CNS = system: U251 CNS
UACC-257 melanoma = system: UACC-257 melanoma
UACC-62 melanoma = system: UACC-62 melanoma
UO-31 renal = system: UO-31 renal
XF 498 CNS = system: XF 498 CNS

**Q.** Which results are given for `O=NN(CCCl)C(=O)NC1CCC(C(=O)O)CC1` (stereo not given)?
**A.** TGI (786-0 renal): > 100 µM; TGI (A498 renal): > 100 µM; TGI (A549 NSCLC): > 100 µM; TGI (ACHN renal): > 100 µM; TGI (CAKI-1 renal): > 100 µM; TGI (CCRF-CEM leukemia): > 100 µM; TGI (COLO 205 colon): > 100 µM; TGI (DLD-1 colon): > 100 µM; TGI (DMS 114 small cell lung): > 100 µM and 49 µM; TGI (DMS 273 small cell lung): > 100 µM; TGI (EKVX NSCLC): > 100 µM; TGI (HCC-2998 colon): > 100 µM; TGI (HCT-116 colon): > 100 µM; TGI (HCT-15 colon): > 100 µM; TGI (HL-60(TB) leukemia): > 100 µM; TGI (HOP-18 NSCLC): > 100 µM; TGI (HOP-62 NSCLC): > 100 µM; TGI (HOP-92 NSCLC): > 100 µM; TGI (HT29 colon): > 100 µM; TGI (IGROV1 ovarian): > 100 µM; TGI (K-562 leukemia): > 100 µM; TGI (KM12 colon): > 100 µM; TGI (KM20L2 colon): > 100 µM; TGI (LOX IMVI melanoma): > 100 µM; TGI (LXFL 529 NSCLC): > 100 µM; TGI (M14 melanoma): > 100 µM; TGI (M19-MEL melanoma): > 100 µM; TGI (MALME-3M melanoma): > 100 µM; TGI (MCF7 breast): > 100 µM; TGI (MOLT-4 leukemia): > 80.9 µM; TGI (NCI-H226 lung): > 100 µM; TGI (NCI-H23 lung): > 100 µM; TGI (NCI-H460 lung): > 100 µM; TGI (NCI-H522 lung): 75.1 µM and > 100 µM; TGI (NCI/ADR-RES ovarian): > 100 µM; TGI (OVCAR-3 ovarian): > 100 µM; TGI (OVCAR-4 ovarian): > 100 µM; TGI (OVCAR-5 ovarian): > 100 µM; TGI (OVCAR-8 ovarian): > 100 µM; TGI (P388 leukemia): 16.2 µM and 19.2 µM; TGI (P388/ADR leukemia): 17.5 µM and 33.8 µM; TGI (RPMI-8226 leukemia): > 100 µM; TGI (RXF 393 renal): > 100 µM; TGI (RXF-631 renal): > 100 µM; TGI (SF-268 CNS): > 100 µM; TGI (SF-295 CNS): > 100 µM; TGI (SF-539 CNS): > 100 µM; TGI (SK-MEL-2 melanoma): > 100 µM; TGI (SK-MEL-28 melanoma): > 100 µM; TGI (SK-MEL-5 melanoma): > 100 µM; TGI (SK-OV-3 ovarian): > 100 µM; TGI (SN12C renal): > 100 µM; TGI (SN12K1 renal): > 100 µM; TGI (SNB-19 CNS): > 100 µM; TGI (SNB-75 CNS): > 100 µM; TGI (SNB-78 CNS): > 100 µM; TGI (SR leukemia): > 100 µM; TGI (SW-620 colon): > 100 µM; TGI (TK-10 renal): > 100 µM; TGI (U251 CNS): > 100 µM; TGI (UACC-257 melanoma): > 100 µM; TGI (UACC-62 melanoma): > 100 µM; TGI (UO-31 renal): > 100 µM; TGI (XF 498 CNS): > 100 µM

**Q.** Which results are given for `C#CC[N+](CCO)(CCO)CCCCCCCCCCCCCCCCCC`?
**A.** TGI (A498 renal): 37.8 µM; TGI (A549 NSCLC): 36.5 µM; TGI (CAKI-1 renal): 15.9 µM; TGI (COLO 205 colon): 27.1 µM; TGI (DLD-1 colon): 24.5 µM; TGI (DMS 114 small cell lung): 33 µM; TGI (DMS 273 small cell lung): 22.6 µM; TGI (EKVX NSCLC): 51.1 µM; TGI (HCC-2998 colon): 23.7 µM; TGI (HCT-116 colon): 27.4 µM; TGI (HCT-15 colon): 50.8 µM; TGI (HL-60(TB) leukemia): 3.43 µM; TGI (HOP-18 NSCLC): 22.1 µM; TGI (HOP-62 NSCLC): 25.5 µM; TGI (HOP-92 NSCLC): 5.2 µM; TGI (HT29 colon): 20.1 µM; TGI (IGROV1 ovarian): 5.13 µM; TGI (K-562 leukemia): > 41.2 µM; TGI (KM12 colon): 8.97 µM; TGI (KM20L2 colon): 25.8 µM; TGI (LOX IMVI melanoma): > 48.3 µM; TGI (M19-MEL melanoma): 15 µM; TGI (MALME-3M melanoma): 32.3 µM; TGI (MCF7 breast): 36.5 µM; TGI (MOLT-4 leukemia): 9.7 µM; TGI (NCI-H226 lung): 29.2 µM; TGI (NCI-H23 lung): 30.1 µM; TGI (NCI-H460 lung): 27.9 µM; TGI (NCI-H522 lung): 21.7 µM; TGI (NCI/ADR-RES ovarian): 39.5 µM; TGI (OVCAR-3 ovarian): 35.9 µM; TGI (OVCAR-4 ovarian): 25 µM; TGI (OVCAR-5 ovarian): 32.5 µM; TGI (OVCAR-8 ovarian): 43.1 µM; TGI (P388 leukemia): 2.5 µM; TGI (P388/ADR leukemia): > 43.7 µM; TGI (RPMI-8226 leukemia): > 29 µM; TGI (RXF 393 renal): 6.64 µM; TGI (SF-268 CNS): 26.2 µM; TGI (SF-295 CNS): 24.1 µM; TGI (SF-539 CNS): 30.2 µM; TGI (SK-MEL-2 melanoma): 31.8 µM; TGI (SK-MEL-28 melanoma): 30.6 µM; TGI (SK-MEL-5 melanoma): 32.1 µM; TGI (SK-OV-3 ovarian): 36.1 µM; TGI (SN12C renal): 39.3 µM; TGI (SN12K1 renal): 30 µM; TGI (SNB-19 CNS): 20.7 µM; TGI (SNB-75 CNS): 15.9 µM; TGI (SNB-78 CNS): 28.4 µM; TGI (SW-620 colon): 34.9 µM; TGI (U251 CNS): 27.5 µM; TGI (UACC-257 melanoma): 31 µM; TGI (UACC-62 melanoma): 25.4 µM; TGI (UO-31 renal): 34.9 µM; TGI (XF 498 CNS): 17.3 µM
